Columns and labels:
Assay type in all cases: cell-based, human
GLP1R‐neurons = experiment: Ca^2+ imaging, GLP1R‐neurons (iPSC‐derived); details: 10 nM GLP1 (GLP1 (7–37) in method), day 35, Fluo‐8 AM
Experimental: (§1) Before initiating differentiation, the iPSCs (1–2 × 10^5 cells·cm^−2; Cell lines and cell culture section) were transferred to 6‐well plates (Corning, Inc., Corning, NY, USA) coated with 2‐methacryloyloxyethyl phosphorylcholine (MPC) polymer (Lipidure CM5206E; NOF, Tokyo, Japan). The cells were maintained in mTeSR1 cGMP medium containing 10 μM Y‐27632 (Fujifilm Wako Pure Chemical Industries) for 2 or 3 days to form embryoid body (EBs) in a rotary shaker at 95 r.p.m. (OS‐762RC; Optime, Tokyo, Japan). Subsequently, iPSCs were differentiated into neural crest cells (NCCs), as previously reported. Briefly, NCCs were induced from Ebs using knockout serum replacement (KSR) medium and N2 medium with graded addition of nerve growth factors and signaling factors. KSR medium was composed of DMEM‐F12 (Fujifilm Wako Pure Chemical Industries), 20% KSR (Thermo Fisher Scientific), 1% NEAA, 1% monothioglycerol (Fujifilm Wako Pure Chemical Industries), and 1% P/S. N2 medium consisted of DMEM‐F12, 1% N2 supplement (Fujifilm Wako Pure Chemical Industries), 1% NEAA, and 1% P/S. When EB formation was considered day 0 of induction, the medium was changed at days 2, 5, 7, 9, and 12. […]

NPY2R‐neurons [1] = experiment: Ca^2+ imaging, NPY2R‐neurons (iPSC‐derived)
Experimental: as §1

NPY2R‐neurons [2] = experiment: MEA recording of neuronal firing, NPY2R‐neurons; details: PYY, 10 nM or 100 nM (both printed in Fig. 6 legend); day 27; 0 nM n = 8 electrodes, 100 nM n = 6 electrodes; Fig. 6F
Experimental: as §1

Row | Substance | Intracellular Ca^2+ concentration of selected GLP1R‐neurons (traces) (GLP1R‐neurons; Fig. S5B) | Ratio of change (ΔF stim/F 0) in mean fluorescence intensity before and after ligand addition (GLP1R‐neurons; n = 10, Student's t‐test vs. 0 nM, Fig. 6C) | Intracellular Ca^2+ concentration (traces) (NPY2R‐neurons [1]; 100 nM PYY (PYY (3–36) in method), NPY2R‐neurons day 35, Fluo‐8 AM, Fig. S5C) | Fluorescence intensity (ΔF stim/F 0) (NPY2R‐neurons [1]; PYY, 10 nM per Fig. 6 legend (100 nM in text and Fig. S5C), day 35, n = 10, Student's t‐test vs. 0 nM, Fig. 6E) | Firing frequency (NPY2R‐neurons [2])
1 | GLP1: GLP1 (4280‐v; Peptide Institute, Inc.); GLP1 (7–37) in Ca2+ imaging (HAEGTFTSDVSSYLEGQAAKEFIAWLVKGRG; Glucagon-like peptide 1(7-37); UniProt P01275 98-128, looked up) | increased the intracellular Ca^2+ concentration | significantly increased |  |  | 
2 | PYY: PYY (4400‐v; Peptide Institute, Inc.); PYY (3–36) in Ca2+ imaging |  |  | increased intracellular Ca^2+ concentration | significantly increased fluorescence intensity | significantly increased fluorescence intensity and firing frequency

Reference: paper PMC10761937, “Functional engineering of human iPSC‐derived parasympathetic neurons enhances responsiveness to gastrointestinal hormones” (FEBS Open Bio, 2023)
